Square brackets hold non-standard residues; d marks the D form. Ends that are not written are not given here.
Experiments:
[1] = Immunization of rabbits with KLVFFA peptide, antibody titers; assay type: in vivo; settings: rabbits immunized, KLH-conjugated peptide, FIG. 7
Experimental: Rabbits were immunized with all-D or all-L KLVFFA.
Standard assays for fibrillogenesis were used to evaluate activity, such as those based on Thioflavine T, circular dichroism and solubility.
Rabbits were immunized with D- or L-Aβ (16-21) peptide. Antibodies raised were tested for their antifibrillogenic activities by ThT assay and by electron microscopy (EM).

[2] = tested on: transgenic mouse model of brain amyloidosis; settings: vaccinated transgenic mice; cited from earlier work

## Aβ (16-21, all-D) ([dK][dL][dV][dF][dF][dA]) [all-D KLVFFA, KLVFFA]
[1]
  production of antibodies (antibody titers): causes production of antibodies
[1]; listed as Aβ 16-21 (all-D)
  production of antibodies (antibody titers): antibodies can be raised

## human aggregated all-L peptide: human aggregated all-L Aβ peptide used as immunogen in the vaccine of Schenk et al. (1999)
[2]
  formation of β-amyloid plaque, astrogliosis and neuritic dystrophy: prevented the formation of β-amyloid plaque, astrogliosis and neuritic dystrophy
